30 molecules from patent publication US20080171732A1, “New Pyridine Analogues IX 519” (AstraZeneca AB, priority 2007, published 2008) can be followed below.

For the assay, the target named is T1, P2Y12 receptor (Homo sapiens, UniProt Q9H244).
T1 construct: expressed in transfected cells; host or cells: CHO cells (membranes)
T1 sequence (Q9H244 whole entry): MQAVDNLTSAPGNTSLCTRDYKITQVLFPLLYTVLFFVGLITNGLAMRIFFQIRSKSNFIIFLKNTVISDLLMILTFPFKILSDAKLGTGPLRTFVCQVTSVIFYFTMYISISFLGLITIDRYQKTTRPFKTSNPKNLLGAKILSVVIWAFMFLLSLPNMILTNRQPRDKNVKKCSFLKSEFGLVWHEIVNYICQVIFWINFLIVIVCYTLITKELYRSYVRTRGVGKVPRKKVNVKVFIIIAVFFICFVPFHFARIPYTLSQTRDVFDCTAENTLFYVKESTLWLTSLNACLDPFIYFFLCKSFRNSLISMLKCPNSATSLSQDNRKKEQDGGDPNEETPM
The experiment in a line: Functional inhibition of 2-Me-S-ADP induced P2Y12 signalling (35S-GTPγS, cell membranes from P2Y12 transfected CHO-cells). Format: biochemical. Conditions: EC80 concentration of agonist 2-methyl-thio-adenosine diphosphate, 30° C., 45 min. The protocol:
Functional inhibition of-the P2Y12 receptor can be measured by in vitro assays using cell membranes from P2Y12 transfected CHO-cells, the methodology is indicated below.
(§1) Functional inhibition of 2-Me-S-ADP induced P2Y12 signalling: 5 μg of membranes were diluted in 200 μl of 200 mM NaCl, 1 mM MgCl2, 50 mM HEPES (pH 7.4), 0.01% BSA, 30μg/ml saponin and 10 μM GDP. To this was added an EC80 concentration of agonist (2-methyl-thio-adenosine diphosphate), the required concentration of test compound and 0.1 μCi ^35S-GTPγS. The reaction was allowed to proceed at 30° C. for 45 min. Samples were then transferred on to GF/B filters using a cell harvester and washed with wash buffer (50 mM Tris (pH 7.4), 5 mM MgCl2, 50 mM NaCl). Filters were then covered with scintilant and counted for the amount of ^35S-GTPγS retained by the filter. Maximum activity was that determined in the presence of the agonist and minimum activity in the absence of the agonist following subtraction of the value determined for non-specific activity. The effect of compounds at various concentrations was plotted according to the equation
y=A+((B−A)/(1+((C/x)̂D)))
and IC50 estimated where • A is the bottom plateau of the curve i.e. the final minimum y value • B is the top of the plateau of the curve i.e. the final maximum y value • C is the x value at the middle of the curve. This represents the log EC50 value when A+B=100 • D is the slope factor. • x is the original known x values. • Y is the original known y values.
as §1, with “30 μg/ml” for “30μg/ml”, “0. 1” for “0.1”
On the technique in general: GTPγS resists hydrolysis and so accumulates on activated G proteins.
With `COc1nc(N2CCC(C(=O)NS(=O)(=O)Cc3ccccc3)CC2)c(C#N)cc1C(=O)OC(C)C` [Example 60, Isopropyl6-{4-[(benzylsulfonyl)carbamoyl]piperidin-1-yl}-5-cyano-2-methoxynicotinate], the IC50 turned out to be 0.027 µM.
On to `CCOC(=O)c1cc(C#N)c(N2CC(C(=O)NS(=O)(=O)Cc3ccc(Cl)cc3Cl)C2)nc1OC` [Example 28, Ethyl5-cyano-6-(3-{[(2,4-dichlorobenzyl)sulfonyl]carbamoyl}azetidin-1-yl)-2-methoxynicotinate], for which the IC50 came to 0.005 µM.
In the case of `CCOC(=O)c1cc(C#N)c(N2CCC(C(=O)NS(=O)(=O)Cc3ccc(Cl)cc3)CC2)nc1OC` [Example 12, Ethyl6-(4-{[(4-chlorobenzyl)sulfonyl]carbamoyl}piperidin-1-yl)-5-cyano-2-methoxynicotinate], the IC50 was 0.009 µM.
Molecule `CCOC(=O)c1cc(C#N)c(N2CC(C(=O)NS(=O)(=O)Cc3ccc(F)cc3F)C2)nc1OCC` [Example 41, Ethyl5-cyano-6-(3-{[(2,4-difluorobenzyl)sulfonyl]carbamoyl}azetidin-1-yl)-2-ethoxynicotinate] returned an IC50 of 0.087 µM.
The molecule `CCOC(=O)c1cc(Cl)c(N2CCC(C(=O)NS(=O)(=O)Cc3ccc(Cl)cc3)CC2)nc1SC` [Example 43, Ethyl5-chloro-6-(4-{[(4-chlorobenzyl)sulfonyl]carbamoyl}piperidin-1-yl)-2-(methylthio)nicotinate] registered an IC50 of 0.132 µM.
`CCOC(=O)c1cc(C#N)c(N2CCC(C(=O)NS(=O)(=O)Cc3cccc(F)c3F)CC2)nc1OC` [Example 19, Ethyl5-cyano-6-(4-{[(2,3-difluorobenzyl)sulfonyl]carbamoyl}piperidin-1-yl)-2-methoxynicotinate] registered an IC50 of 0.031 µM.
The molecule `CCOC(=O)c1cc(C#N)c(N2CC(C(=O)NS(=O)(=O)Cc3ccccc3)C2)nc1SC` [Example 57, Ethyl6-{3-[(benzylsulfonyl)carbamoyl]azetidin-1-yl}-5-cyano-2-(methylthio)nicotinate] came in with an IC50 of 0.018 µM.
In turn, `CCOC(=O)c1cc(C#N)c(N2CCC(C(=O)NS(=O)(=O)Cc3ccccc3)CC2)nc1Cn1cncn1` [Example 47, Ethyl6-{4-[(benzylsulfonyl)carbamoyl]piperidin-1-yl}-5-cyano-2-(1H-1,2,4-triazol-1-ylmethyl)nicotinate] came in with an IC50 of 0.077 µM.
Take `CCOC(=O)c1cc(C#N)c(N2CCC(C(=O)NS(=O)(=O)Cc3ccc(F)c(F)c3)CC2)nc1OC` [Example 14, Ethyl5-cyano-6-(4-{[(3,4-difluorobenzyl)sulfonyl]carbamoyl}piperidin-1-yl)-2-methoxynicotinate]: the IC50 was 0.013 µM.
`CCOC(=O)c1cc(C#N)c(N2CCC(C(=O)NS(=O)(=O)Cc3ccccc3)CC2)nc1COCc1ccccc1` [Example 36, Ethyl2-[(benzyloxy)methyl]-6-{4-[(benzylsulfonyl)carbamoyl]piperidin-1-yl}-5-cyanonicotinate] returned a 50% inhibitory concentration (IC50) of 0.055 µM.
For the molecule `CCOC(=O)c1cc(C#N)c(N2CCC(C(=O)NS(=O)(=O)Cc3ccccc3)CC2)nc1Cn1ccnn1` [Example 48], the IC50 worked out at 0.032 µM.
Consider `CCOC(=O)c1cc(C#N)c(N2CC(C(=O)NS(=O)(=O)Cc3ccccc3)C2)nc1OC` [Example 2, Ethyl6-{3-[(benzylsulfonyl)carbamoyl]azetidin-1-yl}-5-cyano-2-methoxynicotinate], for which the IC50 was 0.018 µM.
Molecule `CCCC(=O)c1cc(C#N)c(N2CCC(C(=O)NS(=O)(=O)Cc3ccccc3)CC2)nc1OC` [Example 53, N-(Benzylsulfonyl)-1-(5-butyryl-3-cyano-6-methoxypyridin-2-yl)piperidine-4-carboxamide] displayed an IC50 of 0.076 µM.
The molecule `CCOC(=O)c1cc(C#N)c(N2CC(C(=O)NS(=O)(=O)Cc3ccc(Cl)cc3)C2)nc1OC` [Example 25, Ethyl6-(3-{[(4-chlorobenzyl)sulfonyl]carbamoyl}azetidin-1-yl)-5-cyano-2-methoxynicotinate] registered an IC50 of 0.006 µM.
The figure for `CCOC(=O)c1cc(C#N)c(N2CCC(C(=O)NS(=O)(=O)Cc3ccc(Cl)cc3F)CC2)nc1OC` [Example 18, Ethyl6-(4-{[(4-chloro-2-fluorobenzyl)sulfonyl]carbamoyl}piperidin-1-yl)-5-cyano-2-methoxynicotinate] is 0.01 µM; for `CCOC(=O)c1cc(F)c(N2CCC(C(=O)NS(=O)(=O)Cc3ccccc3)CC2)nc1Cl` [Example 46, Ethyl6-{4-[(benzylsulfonyl)carbamoyl]piperidin-1-yl}-2-chloro-5-fluoronicotinate] it is 0.048 µM.
Molecule `CCCC(=O)c1cc(C#N)c(N2CCC(C(=O)NS(=O)(=O)Cc3ccc(Cl)cc3)CC2)nc1OC` [Example 52, 1-(5-Butyryl-3-cyano-6-methoxypyridin-2-yl)-N-[(4-chlorobenzyl)sulfonyl]piperidine-4-carboxamide] registered an IC50 of 0.055 µM.
`CCCC(=O)c1cc(C#N)c(N2CCC(C(=O)NS(=O)(=O)Cc3ccc(F)cc3)CC2)nc1OC` [Example 51, 1-(5-Butyryl-3-cyano-6-methoxypyridin-2-yl)-N-[(4-fluorobenzyl)sulfonyl]piperidine-4-carboxamide] showed an IC50 of 0.05 µM.
As for `CCOC(=O)c1cc(Cl)c(N2CCC(C(=O)NS(=O)(=O)Cc3ccccc3)CC2)nc1Cl` [Example 59, Ethyl6-{4-[(benzylsulfonyl)carbamoyl]piperidin-1-yl}-2,5-dichloronicotinate], the IC50 stood at 0.033 µM.
Turning to `CCOC(=O)c1cc(C#N)c(N2CC(C(=O)NS(=O)(=O)Cc3ccccc3)C2)nc1OCC` [Example 38, Ethyl6-{3-[(benzylsulfonyl)carbamoyl]azetidin-1-yl}-5-cyano-2-ethoxynicotinate], the IC50 amounted to 0.047 µM.
As for `CCOC(=O)c1cc(F)c(N2CCC(C(=O)NS(=O)(=O)Cc3ccccc3)CC2)nc1SC` [Example 44, Ethyl6-{4-[(benzylsulfonyl)carbamoyl]piperidin-1-yl}-5-fluoro-2-(methylthio)nicotinate], the IC50 is 0.042 µM.
The figure for `CCOC(=O)c1cc(C#N)c(N2CC(C(=O)NS(=O)(=O)Cc3cccc(F)c3F)C2)nc1OC` [Example 32, Ethyl5-cyano-6-(3-{[(2,3-difluorobenzyl)sulfonyl]carbamoyl}azetidin-1-yl)-2-methoxynicotinate] is 0.083 µM; for `CC(C)OC(=O)c1cc(C#N)c(N2CCC(C(=O)NS(=O)(=O)Cc3ccccc3)CC2)nc1C#N` [Example 50, Isopropyl6-{4-[(benzylsulfonyl)carbamoyl]piperidin-1-yl}-2,5-dicyanonicotinate] it is 0.016 µM; for `CCOC(=O)c1cc(C#N)c(N2CCC(C(=O)NS(=O)(=O)Cc3ccccc3)CC2)nc1CCOC` [Example 45, Ethyl6-{4-[(benzylsulfonyl)carbamoyl]piperidin-1-yl}-5-cyano-2-(2-methoxyethyl)nicotinate] it is 0.06 µM.
“Ethyl5-cyano-6-(3-{[(2-fluorobenzyl)sulfonyl]carbamoyl}azetidin-1-yl)-2-methoxynicotinate [Example 21]” had an IC50 of 0.015 µM.
Molecule `CCOC(=O)c1cc(C#N)c(N2CC(C(=O)NS(=O)(=O)Cc3ccc(F)cc3Cl)C2)nc1OC` [Example 30, Ethyl6-(3-{[(2-chloro-4-fluorobenzyl)sulfonyl]carbamoyl}azetidin-1-yl)-5-cyano-2-methoxynicotinate] yielded an IC50 of 0.009 µM.
Consider `CCOC(=O)c1cc(C#N)c(N2CC(C(=O)NS(=O)(=O)Cc3ccccc3)C2)nc1COCc1ccc(OC)c(OC)c1` [Example 42, Ethyl6-{3-[(benzylsulfonyl)carbamoyl]azetidin-1-yl}-5-cyano-2-{[(3,4-dimethoxybenzyl)oxy]methyl}nicotinate], for which the IC50 was found to be 0.135 µM.
Regarding `CCOC(=O)c1cc(C#N)c(N2CC(C(=O)NS(=O)(=O)Cc3ccc(F)cc3)C2)nc1OC` [Example 24, Ethyl5-cyano-6-(3-{[(4-fluorobenzyl)sulfonyl]carbamoyl}azetidin-1-yl)-2-methoxynicotinate], the IC50 stood at 0.009 µM.
As to `CCOC(=O)c1cc(C#N)c(N2CC(C(=O)NS(=O)(=O)Cc3ccc(F)c(F)c3)C2)nc1OC` [Example 27, Ethyl5-cyano-6-(3-{[(3,4-difluorobenzyl)sulfonyl]carbamoyl}azetidin-1-yl)-2-methoxynicotinate], the IC50 turned out to be 0.035 µM.
The figure for `COc1nc(N2CCC(C(=O)NS(=O)(=O)Cc3ccc(F)cc3)CC2)c(C#N)cc1C(=O)OC(C)C` [Example 56, Isopropyl5-cyano-6-(4-{[(4-fluorobenzyl)sulfonyl]carbamoyl}piperidin-1-yl)-2-methoxynicotinate] is 0.025 µM.

One may read the IC50 as the point on the concentration scale where inhibition reaches its midpoint. The low end stands for higher potency, the high end for lower potency.
